Experimental data published in patent US10961231B2, “NTCP inhibitors” (National Institute of Biological Sciences, Beijing, priority 2018, dated 2021).

What follows are compounds tested against T1, NTCP (Homo sapiens, UniProt Q14973) (assay: [3H]-TCA uptake assay (NTCP inhibition)). Details: IC50, given as a range, marked * (asterisk not explained).
T1 sequence (Q14973 1-349): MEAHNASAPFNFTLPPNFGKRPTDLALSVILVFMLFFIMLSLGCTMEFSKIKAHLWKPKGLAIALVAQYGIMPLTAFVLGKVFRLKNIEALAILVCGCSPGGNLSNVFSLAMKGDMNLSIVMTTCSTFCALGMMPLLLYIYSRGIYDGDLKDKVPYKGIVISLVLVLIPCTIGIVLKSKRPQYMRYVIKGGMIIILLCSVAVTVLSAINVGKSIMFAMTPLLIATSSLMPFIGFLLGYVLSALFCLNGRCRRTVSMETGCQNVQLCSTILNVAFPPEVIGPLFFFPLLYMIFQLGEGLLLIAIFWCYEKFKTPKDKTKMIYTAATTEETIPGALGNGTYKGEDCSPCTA
Type: cell-based
Protocol: [^3H]-TCA uptake assay. PTH and HepG2-NTCP cells were cultured in PMM for 24 hours to induce NTCP expression. After treated by DMSO or test compounds for 2 hours, the cells were then incubated with 1 μM [^3H]-taurocholate acid dissolved in Na^+ Ringer's buffer (the concentration of Na was 145 mM) for 15 minutes at 37° C. Subsequently, the cells were washed once in phosphate-buffered saline (PBS) and lysed in 50 μL 1% TritonX-100 in H2O for 5 minutes at room temperature. The lysate were totally transferred into a liquid scintillation 96 well plate and mixed with 200 μL liquid scintillation cocktail (Ultima Gold XR, PerkinElmer). Liquid scintillation counting was performed on a PerkinElmer 1450 LSC liquid scintillation counter.

How did the IC50 turn out when CCC1NC(=O)C(C2OC(Oc3ccc(N4CCOCC4)cc3)CC2C)N(C)C(=O)C(C(C)C)N(C)C(=O)C(CC(C)C)N(C)C(=O)C(CC(C)C)N(C)C(=O)C(C)NC(=O)C(C)NC(=O)C(CC(C)C)N(C)C(=O)C(C(C)C)NC(=O)C(CC(C)C)N(C)C(=O)CN(C)C1=O (stereo not drawn) [Compound 3A-o] was run?
The IC50 was 1000 to 100000 nM.

With CCC1NC(=O)C(C2OC(Oc3ccc(NC(C)=O)cc3)CC2C)N(C)C(=O)C(C(C)C)N(C)C(=O)C(CC(C)C)N(C)C(=O)C(CC(C)C)N(C)C(=O)C(C)NC(=O)C(C)NC(=O)C(CC(C)C)N(C)C(=O)C(C(C)C)NC(=O)C(CC(C)C)N(C)C(=O)CN(C)C1=O (stereo not drawn) [Compound 4A-o] as the compound, how does the IC50 read?
The IC50 was 1000 to 100000 nM.

CCC1NC(=O)C(C2OC(Oc3ccc(OS(C)(=O)=O)cc3)CC2C)N(C)C(=O)C(C(C)C)N(C)C(=O)C(CC(C)C)N(C)C(=O)C(CC(C)C)N(C)C(=O)C(C)NC(=O)C(C)NC(=O)C(CC(C)C)N(C)C(=O)C(C(C)C)NC(=O)C(CC(C)C)N(C)C(=O)CN(C)C1=O (stereo not drawn) [Compound 5A-o] was tested. Which IC50 did it give?
The IC50 was 1000 to 100000 nM.

For CCC1NC(=O)C(C2OC(Oc3ccc(N4CCN(C)CC4)cc3)CC2C)N(C)C(=O)C(C(C)C)N(C)C(=O)C(CC(C)C)N(C)C(=O)C(CC(C)C)N(C)C(=O)C(C)NC(=O)C(C)NC(=O)C(CC(C)C)N(C)C(=O)C(C(C)C)NC(=O)C(CC(C)C)N(C)C(=O)CN(C)C1=O (stereo not drawn) [Compound 6A-o], which IC50 is on record?
The IC50 was 1000 to 100000 nM.

With CCC1NC(=O)C(C2OC(Oc3ccc(CN4CCN(C)CC4)cc3)CC2C)N(C)C(=O)C(C(C)C)N(C)C(=O)C(CC(C)C)N(C)C(=O)C(CC(C)C)N(C)C(=O)C(C)NC(=O)C(C)NC(=O)C(CC(C)C)N(C)C(=O)C(C(C)C)NC(=O)C(CC(C)C)N(C)C(=O)CN(C)C1=O (stereo not drawn) [Compound 7A-o] as the compound, how does the IC50 read?
Its IC50 is 1000 to 100000 nM.

Which IC50 does the source give for CCCCc1ccc(OC2CC(C)C(C3C(=O)NC(CC)C(=O)N(C)CC(=O)N(C)C(CC(C)C)C(=O)NC(C(C)C)C(=O)N(C)C(CC(C)C)C(=O)NC(C)C(=O)NC(C)C(=O)N(C)C(CC(C)C)C(=O)N(C)C(CC(C)C)C(=O)N(C)C(C(C)C)C(=O)N3C)O2)cc1 (stereo not drawn) [Compound 8A-o] here?
The IC50 was 1000 to 100000 nM.

Which IC50 does the source give for CCC1NC(=O)C(C2OC(Oc3ccc(C4CCCCC4)cc3)CC2C)N(C)C(=O)C(C(C)C)N(C)C(=O)C(CC(C)C)N(C)C(=O)C(CC(C)C)N(C)C(=O)C(C)NC(=O)C(C)NC(=O)C(CC(C)C)N(C)C(=O)C(C(C)C)NC(=O)C(CC(C)C)N(C)C(=O)CN(C)C1=O (stereo not drawn) [Compound 9A-o] here?
The IC50 was 1000 to 100000 nM.

Which IC50 does the source give for CCC1NC(=O)C(C2OC(Oc3ccc(SCCCS(=O)(=O)O)cc3)CC2C)N(C)C(=O)C(C(C)C)N(C)C(=O)C(CC(C)C)N(C)C(=O)C(CC(C)C)N(C)C(=O)C(C)NC(=O)C(C)NC(=O)C(CC(C)C)N(C)C(=O)C(C(C)C)NC(=O)C(CC(C)C)N(C)C(=O)CN(C)C1=O (stereo not drawn) [Compound 10A-o] here?
Its IC50 is 1000 to 100000 nM.

Same assay, conditions: IC50, given as a range; assay not given

Which IC50 does the source give for CCC1NC(=O)C(C2OC(Sc3ccc(NC(C)=O)cc3)CC2C)N(C)C(=O)C(C(C)C)N(C)C(=O)C(CC(C)C)N(C)C(=O)C(CC(C)C)N(C)C(=O)C(C)NC(=O)C(C)NC(=O)C(CC(C)C)N(C)C(=O)C(C(C)C)NC(=O)C(CC(C)C)N(C)C(=O)CN(C)C1=O [Compound 4A, [2-((2R,3R)-5-(4-acetamidophenylthio)-3-methyltetrahydrofuran-2-yl)-2-(methylamino)acetic acid]^1-cyclosporin A] here?
Its IC50 is 1000 to 10000 nM.

Which IC50 does the source give for CCC1NC(=O)C(C2OC(Sc3ccc(OS(C)(=O)=O)cc3)CC2C)N(C)C(=O)C(C(C)C)N(C)C(=O)C(CC(C)C)N(C)C(=O)C(CC(C)C)N(C)C(=O)C(C)NC(=O)C(C)NC(=O)C(CC(C)C)N(C)C(=O)C(C(C)C)NC(=O)C(CC(C)C)N(C)C(=O)CN(C)C1=O [Compound 5A, [2-((2R,3R)-3-methyl-5-(4-(methylsulfonyloxy)phenylthio)tetrahydrofuran-2-yl)-2-(methylamino)acetic acid]^1-cyclosporin A] here?
The IC50 was 1000 to 10000 nM.

With CCC1NC(=O)C(C2OC(Sc3ccc(CN4CCN(C)CC4)cc3)CC2C)N(C)C(=O)C(C(C)C)N(C)C(=O)C(CC(C)C)N(C)C(=O)C(CC(C)C)N(C)C(=O)C(C)NC(=O)C(C)NC(=O)C(CC(C)C)N(C)C(=O)C(C(C)C)NC(=O)C(CC(C)C)N(C)C(=O)CN(C)C1=O [Compound 7A, [2-((2R,3R)-3-methyl-5-(4-((4-methylpiperazin-1-yl)methyl)phenylthio)tetrahydrofuran-2-yl)-2-(methylamino)acetic acid]^1-cyclosporin A] as the compound, how does the IC50 read?
The IC50 was 1000 to 10000 nM.

Same assay, conditions: given as a range, marked * (asterisk not explained)

How did the IC50 turn out when CCC1NC(=O)C(C2OC(Oc3cc(OCCOC)cc(OCc4ccccc4)c3)CC2C)N(C)C(=O)C(C(C)C)N(C)C(=O)C(CC(C)C)N(C)C(=O)C(CC(C)C)N(C)C(=O)C(C)NC(=O)C(C)NC(=O)C(CC(C)C)N(C)C(=O)C(C(C)C)NC(=O)C(CC(C)C)N(C)C(=O)CN(C)C1=O (stereo not drawn) [Compound 11-0] was run?
The IC50 was 1000 to 100000 nM.

With CCC1NC(=O)C(C2OC(Sc3cc(OCCOC)cc(OCc4ccccc4)c3)CC2C)N(C)C(=O)C(C(C)C)N(C)C(=O)C(CC(C)C)N(C)C(=O)C(CC(C)C)N(C)C(=O)C(C)NC(=O)C(C)NC(=O)C(CC(C)C)N(C)C(=O)C(C(C)C)NC(=O)C(CC(C)C)N(C)C(=O)CN(C)C1=O (stereo not drawn) [Compound 11] as the compound, how does the IC50 read?
Its IC50 is 1000 to 100000 nM.

Same assay, conditions: given as a range; assay not given

CCC1NC(=O)C(C2OC(Sc3ccc(N4CCOCC4)cc3)CC2C)N(C)C(=O)C(C(C)C)N(C)C(=O)C(CC(C)C)N(C)C(=O)C(CC(C)C)N(C)C(=O)C(C)NC(=O)C(C)NC(=O)C(CC(C)C)N(C)C(=O)C(C(C)C)NC(=O)C(CC(C)C)N(C)C(=O)CN(C)C1=O [Compound 3A, [2-((2R,3R)-3-methyl-5-(4-morpholinophenylthio)tetrahydrofuran-2-yl)-2-(methylamino)acetic acid]^1-cyclosporin A] was tested. Which IC50 did it give?
Its IC50 is 1 to 1000 nM.

Which IC50 does the source give for CCC1NC(=O)C(C2OC(Sc3ccc(N4CCN(C)CC4)cc3)CC2C)N(C)C(=O)C(C(C)C)N(C)C(=O)C(CC(C)C)N(C)C(=O)C(CC(C)C)N(C)C(=O)C(C)NC(=O)C(C)NC(=O)C(CC(C)C)N(C)C(=O)C(C(C)C)NC(=O)C(CC(C)C)N(C)C(=O)CN(C)C1=O [Compound 6A, [2-((2R,3R)-3-methyl-5-(4-(4-methylpiperazin-1-yl)phenylthio)tetrahydrofuran-2-yl)-2-(methylamino)acetic acid]^1-cyclosporin A] here?
The IC50 was 1 to 1000 nM.

With CCCCc1ccc(SC2CC(C)C(C3C(=O)NC(CC)C(=O)N(C)CC(=O)N(C)C(CC(C)C)C(=O)NC(C(C)C)C(=O)N(C)C(CC(C)C)C(=O)NC(C)C(=O)NC(C)C(=O)N(C)C(CC(C)C)C(=O)N(C)C(CC(C)C)C(=O)N(C)C(C(C)C)C(=O)N3C)O2)cc1 [Compound 8A, [2-((2R,3R)-5-(4-butylphenylthio)-3-methyltetrahydrofuran-2-yl)-2-(methylamino)acetic acid]^1-cyclosporin A] as the compound, how does the IC50 read?
The IC50 was 1 to 1000 nM.

With CCC1NC(=O)C(C2OC(Sc3ccc(C4CCCCC4)cc3)CC2C)N(C)C(=O)C(C(C)C)N(C)C(=O)C(CC(C)C)N(C)C(=O)C(CC(C)C)N(C)C(=O)C(C)NC(=O)C(C)NC(=O)C(CC(C)C)N(C)C(=O)C(C(C)C)NC(=O)C(CC(C)C)N(C)C(=O)CN(C)C1=O [Compound 9A, [2-((2R,3R)-5-(4-cyclohexylphenylthio)-3-methyltetrahydrofuran-2-yl)-2-(methylamino)acetic acid]^1-cyclosporin A] as the compound, how does the IC50 read?
Its IC50 is 1000 to 1e+06 nM.

For CCC1NC(=O)C(C2OC(Sc3ccc(SCCCS(=O)(=O)O)cc3)CC2C)N(C)C(=O)C(C(C)C)N(C)C(=O)C(CC(C)C)N(C)C(=O)C(CC(C)C)N(C)C(=O)C(C)NC(=O)C(C)NC(=O)C(CC(C)C)N(C)C(=O)C(C(C)C)NC(=O)C(CC(C)C)N(C)C(=O)CN(C)C1=O [Compound 10A, [2-((2R,3R)-3-methyl-5-(4-(3-sulfopropylthio)phenylthio)tetrahydrofuran-2-yl)-2-(methylamino)acetic acid]^1-cyclosporin A], which IC50 is on record?
Its IC50 is 1000 to 1e+06 nM.
